Reference: patent publication EP0986568B1, “NOVEL CLASS OF NUCLEIC ACID CATIONIC TRANSFECTING AGENTS” (Aventis Pharma S.A., priority 1997, dated 1998)

Test system: ADN
Assay: Association with DNA, ethidium bromide fluorescence
Assay type: binding
Details: 6 nmoles d'agent transfectant/µg d'ADN, 5 µg bromure d'éthidium/ml; for fluorescence dans le chlorure de sodium NaCl à 300 mM: NaCl 300 mM; for fluorescence dans l'eau: in water
Description: • Les purifications sur HPLC (High Performance Liquid Chromatography) ont été effectuées avec un appareil Waters LC 4000, sur une colonne Vydac C4 éluée par un gradient d'acétonitrile dans l'eau. • Les mesures de fluorescence ont été réalisées sur Perkin Elmer LS50B, en utilisant des longueurs d'onde d'excitation et d'émission respectivement de 260 nm et 590 nm. Les largeurs de fentes pour l'excitation et l'émission sont réglées à 5 nm. La valeur de fluorescence est enregistrée après ajout de 5 µg de bromure d'éthidium/ml en concentration finale. • Les spectres de résonance magnétique nucléaire (RMN) ont été enregistrés, à 300,13 MHz pour le proton ou à 75,47 MHz pour le carbone, sur un appareil Bruker MSL 300 dans le chloroforme deutérié.
Les agents transfectants selon l'invention ont été mis en solution dans l'eau à 10 mM. Les solutions ainsi obtenues sont transparentes et correspondent à une organisation sous forme de micelles de lipide cationique.
Les complexes agent tranfectant/ADN ont été réalisés suivant un rapport de 6 nmoles d'agent transfectant/µg d'ADN.

Substance	fluorescence dans le chlorure de sodium NaCl à 300 mM [%]	fluorescence dans l'eau [%]
méthyl-dioctadécylamido-succinyl-6-tri-O-(amino-2'-éthyl)-2,3,4-β-D-galactopyranoside [8(a)]	55	6
méthyl-dioctadécylamido-phtalyl-6-tri-O-(amino-2'-éthyl)-2,3,4-β-D-galactopyranoside [8(b)]	60	7
